{"source": "patent US10307392B2", "about": "“Compound and method for treatment of diseases and disorders” (priority 2017, dated 2019)", "origin": "cited, not measured here", "key": {"[1]": {"tested_on": "rat cortical neuron cultures exposed to toxic levels of the neurotransmitter, glutamate", "settings": "for prevention of glutamate toxicity: isolated or synthetic cannabinoid, in vitro neuronal cultures exposed to glutamate; for NMDA, AMPA and kainate receptor mediated neurotoxicity: not affected by cannabinoid receptor antagonist"}, "[2]": {"tested_on": "neuronal cultures"}, "[3]": {"settings": "cyclic voltametry and fenton reaction-based system"}, "[4]": {"tested_on": "PBQ-induced writhing in mice", "settings": "for reducing analgesia and inflammation: mouse, in vivo"}, "[5]": {"tested_on": "females with severe somatoform and dysautonomic syndrome following HPV vaccination", "parameters": "dose or concentration left out as unconfirmed", "settings": "up to a maximum dose of CBD per day; 12 females"}, "[6]": {"tested_on": "Parkinson's disease", "settings": "oral, started with 150 mg/day, 4 weeks"}, "[7]": {"tested_on": "subjects with noninsulin-treated type 2 diabetes"}, "[8]": {"tested_on": "spasticity", "settings": "in vivo"}, "[9]": {"tested_on": "patients receiving Marinol"}, "[10]": {"tested_on": "MS patients", "settings": "13 weeks' follow-up"}}, "note": "Read-outs that look alike come from different tables or passages of the source."}
{"smiles": "C=C(C)[C@@H]1CCC(C)=C[C@H]1c1c(O)cc(CCCCC)cc1O", "note": "[CBD, cannabidiol]", "values": [{"measurement": "protective capacity against glutamate toxicity, head to head with other antioxidants", "setting": "[1]", "value": "superior to both alpha-tocopherol and ascorbate"}, {"measurement": "prevention of glutamate toxicity", "setting": "[1]", "value": "prevented to some extent"}, {"measurement": "NMDA, AMPA and kainate receptor mediated neurotoxicity", "setting": "[1]", "value": "reduced"}, {"measurement": "hydroperoxide toxicity in neurons", "setting": "[2]", "value": "reduce hydroperoxide toxicity"}, {"measurement": "antioxidant activity", "setting": "[3]", "value": "potent antioxidants"}, {"measurement": "inhibition of PBQ-induced writhing", "setting": "[4]; oral administration, mice", "value": "most effective"}, {"measurement": "tolerability", "setting": "[5]", "value": "well tolerated"}, {"measurement": "adverse effect during the treatment", "setting": "[6]", "value": "no adverse effect"}, {"measurement": "tolerability", "setting": "[7]; 200 mg CBD per day, 62 subjects in study", "value": "well tolerated"}]}
{"smiles": "CCCCCc1cc(O)c2c(c1)OC(C)(C)c1ccc(C)cc1-2", "note": "[CBN, cannabinol]", "values": [{"measurement": "reducing analgesia and inflammation", "setting": "[4]", "value": "least effective"}]}
{"smiles": "CCCCCCC(C)(C)c1cc(O)c2c(c1)OC(C)(C)C1CCC(=O)CC21", "note": "(stereo not shown) [Cesamet]", "values": [{"measurement": "reducing spasticity", "setting": "[8]", "value": "positive results"}]}
{"smiles": "CCCCCc1cc(O)c2c(c1)OC(C)(C)[C@@H]1CCC(C)=C[C@@H]21", "note": "[Marinol]", "values": [{"measurement": "reducing spasticity", "setting": "[8]", "value": "positive results"}, {"measurement": "patients reporting cannabinoid dose-related psychotropic effect", "setting": "[9]; antiemetic clinical trials", "value": 24, "unit": "%"}, {"measurement": "patients reporting a CNS adverse reaction", "setting": "[9]; during the first 2 weeks", "value": "About 25%"}, {"measurement": "patients reporting a CNS adverse reaction", "setting": "[9]; each week for the next 6 weeks", "value": "about 4%"}, {"measurement": "patients reporting cannabinoid dose-related psychotropic effect", "setting": "[9]; lower dose appetite stimulant clinical trials", "value": 8, "unit": "%"}, {"measurement": "patients reporting adverse experiences involving the CNS", "setting": "[9]; patients with AIDS, placebo-controlled clinical trials", "value": 33, "unit": "%"}]}
{"smiles": "CCCCCc1cc(O)c2c(c1)OC(C)(C)[C@@H]1CCC(C)=C[C@@H]21", "note": "[THC, delta-9-tetrahydrocannabinol]", "values": [{"measurement": "prevention of glutamate toxicity", "setting": "[1]", "value": "prevented to some extent"}, {"measurement": "NMDA, AMPA and kainate receptor mediated neurotoxicity", "setting": "[1]", "value": "reduced"}, {"measurement": "antioxidant activity", "setting": "[3]", "value": "potent antioxidants"}, {"measurement": "reducing analgesia and inflammation", "setting": "[4]", "value": "least effective"}, {"measurement": "Mean (SD) change in total Ashworth score (baseline minus follow-up)", "setting": "[10]; placebo 0.92 (6.56)", "value": "1.86 (7.95)"}, {"measurement": "Mean (SD) change in Ashworth score, lower-body muscle groups", "setting": "[10]; placebo 1.04 (4.20)", "value": "1.39 (5.21)"}, {"measurement": "Mean (SD) change in Ashworth score, upper-body muscle groups", "setting": "[10]; placebo −0.11 (4.04)", "value": "0.48 (4.70)"}]}
{"smiles": "CCCc1cc(O)c2c(c1)OC(C)(C)[C@@H]1CCC(C)=C[C@@H]21", "note": "[THCV]", "values": [{"measurement": "tolerability", "setting": "[7]; 10 mg THCV per day", "value": "well tolerated"}]}
